Columns and labels:
MCF-7 cells = assay: Annexin V-FITC/PI apoptosis assay, MCF-7; settings: MCF-7, 24 h; for ∑apoptotic cells [%]: sum of early and late
[1] = system: A549 (non-small cell lung carcinoma) cells; assay: MTT cytotoxicity assay, A549 monolayer; format: cell-based, human; settings: exposure time 96 h, mean ± SD
Description: (§1) CH1/PA-1 (ovarian teratocarcinoma), SW480 (colon carcinoma) and A549 (non-small cell lung cancer) cells were maintained as described in the reference. IMR-90 human fetal lung fibroblasts (from the European Collection of Authenticated Cell Cultures, Porton Down, Salisbury, UK) were cultured in Stable Cell^TM DMEM/F12 supplemented with 0.01 mg/mL human recombinant insulin (both purchased from Sigma-Aldrich) and 10% fetal bovine serum (FBS, BioWest, Nuaillé, France). Human colon carcinoma cell lines HCT116 and HT29 (both kindly provided by the Institute of Cancer Research, Department of Medicine I, Medical University of Vienna, Austria) were cultured in McCoy’s 5a medium supplemented with 4 mM L-glutamine (both purchased from Sigma-Aldrich) and 10% FBS. MCF-7 human breast adenocarcinoma cells (kindly provided by M. Ogris, Department of Pharmaceutical Sciences, University of Vienna, Austria) were maintained in DMEM (high glucose) supplemented with 4 mM L-glutamine, 0.1 mg/mL human insulin (all purchased from Sigma-Aldrich) and 10% FBS. All cell lines were grown as monolayers in 75 cm^2 culture flasks (CytoOne, Starlab, Hamburg, Germany) at 37 °C in a humidified atmosphere containing 5% CO2.
Exponentially growing cells were plated into 96-well microculture plates (CytoOne, tissue culture treated, Starlab, Hamburg, Germany) in densities of 1 × 10^3 CH1/PA-1, 2 × 10^3 SW480, 3 × 10^3 A549 and 7 × 10^3 IMR-90 cells per well (each in 100 µL). After a 24 h preincubation, drugs were added in serial dilution to give a final volume of 200 µL/well and exposed for 96 h. At the end of the exposure, the drug solutions were replaced by 100 µL RPMI 1640/MTT mixture (7:1 ratio). MTT (3-(4,5-dimethylthiazol-2-yl)-2,5-diphenyl-2H-tetrazolium bromide), (Acros Organics, Geel, Belgium) solution was prepared in phosphate-buffered saline (5 mg/mL) and mixed with RPMI1640 medium supplemented with 4 mM L-glutamine (both from Sigma-Aldrich) and 10% FBS. After 4 h incubation, the formazan crystals were solubilized in 150 µL of DMSO per well. Absorbance was measured at 550 nm (and at 690 nm as a reference) with a microplate reader (ELx808, BioTek, Winoosky, VT, USA) and Gen5^TM 3.08 software (BioTek). The 50% inhibitory concentrations (IC50) relative to untreated controls were interpolated from concentration-effect curves. At least three biologically and technically independent experiments were performed.

[2] = system: HT29 multicellular tumor spheroids; assay: Resazurin assay, HT29 3D spheroids; format: cell-based, human; settings: 96 h; for IC50: spheroids
Description: as §1
For growing multicellular tumor spheroids, 400 HCT116, 400 HT29 or 800 MCF-7 cells per well were plated into round-bottom ultra-low attachment 96-well plates (Corning, Glendale, AZ, USA) in the media described above and incubated at 37 °C for 96 h. Spheroids were treated with 10 µM of the two most cytotoxic compounds 3 and 4 for another 96 h. The diameters of the spheroids were measured with Cell^F software under a CKX41 Olympus microscope before treatment and in constant daily intervals over the 96 h treatment period. For statistical analysis the t-test with Welsh’s correction was implemented in GraphPad Prism software (Version 6.01).
For the resazurin assay in monolayer cultures, cells were seeded into 96-well microculture plates (CytoOne, tissue culture treated, Starlab, Hamburg, Germany) in densities of 2 × 10^3 HCT116, 2 × 10^3 HT29 and 4 × 10^3 MCF-7 cells per well (each in 100 µL). For tests in 3D cultures, spheroids were grown as described above. After 24 h (for monolayers) or 4 days (for spheroids) the test compounds in the appropriate medium were added in serial dilution to the plates to obtain a total volume of 200 µL/well. Wells without cells, containing medium and resazurin (Alfa Aesar, Thermo Fisher, Kandel, Germany) solution were used as blanks. After 96 h exposure 20 µL of the resazurin solution (440 µM) were added to each well, followed by a 4 h (2D) or 12 h (3D) incubation period. Resorufin fluorescence was quantified at 530 nm (and a reference wavelength of 620 nm) by using a microplate reader (Synergy HT, BioTek) with Gen5^TM 3.10 software (BioTek).

| Structure (SMILES) | early apoptotic cells [%] AV+ / PI- (MCF-7 cells; 200 µM) | late apoptotic cells [%] AV+ / PI+ (MCF-7 cells; 200 µM) | necrotic cells [%] AV- / PI+ (MCF-7 cells; 200 µM) | viable cells [%] AV- / PI- (MCF-7 cells; 200 µM) | IC50 [1] | ratio 3D/2D of IC50 values, HT29 [2] | IC50 [2] | ∑apoptotic cells [%] (MCF-7 cells; 200 µM) | further results |
| --- | --- | --- | --- | --- | --- | --- | --- | --- | --- |
| Cc1occc(=S)c1[O-].F[P-](F)(F)(F)(F)F.[W+4].c1cc[cH-]c1.c1cc[cH-]c1 [Compound 2, Bis(η^5-cyclopentadienyl)[2-methyl-3-(oxo-κO)-4-(1H)-pyran-4-thionato-κS]tungsten(IV) hexafluorophosphate] | 7.4 ± 2.7% | 22.7 ± 4.5% | 14.9 ± 8.3% | 55.1 ± 10.1% | 36 ± 6 µM | > 3.8 | > 200 µM | – | – |
| F[P-](F)(F)(F)(F)F.O=c1c([O-])c(-c2ccc(Cl)cc2)oc2ccccc12.[W+4].c1cc[cH-]c1.c1cc[cH-]c1 [Compound 3, Bis(η^5-cyclopentadienyl)[2-(4-chlorophenyl)-3-(oxo-κO)-4(H)-chromen-4-oato-κO]tungsten(IV) hexafluorophosphate] | – | – | – | – | 19 ± 3 µM | 5.1 | 86 ± 2 µM | – | early apoptotic cells [%] AV+ / PI- (MCF-7 cells; 2 µM): 1.4 ± 0.5%; late apoptotic cells [%] AV+ / PI+ (MCF-7 cells; 2 µM): 4.3 ± 1.5%; necrotic cells [%] AV- / PI+ (MCF-7 cells; 2 µM): 2.5 ± 0.6%; viable cells [%] AV- / PI- (MCF-7 cells; 2 µM): 91.8 ± 1.9%; ∑apoptotic cells [%] (MCF-7 cells; 2 µM): 5.6%; early apoptotic cells [%] AV+ / PI- (MCF-7 cells; 10 µM): 1.4 ± 0.3%; late apoptotic cells [%] AV+ / PI+ (MCF-7 cells; 10 µM): 7.7± 4.4%; necrotic cells [%] AV- / PI+ (MCF-7 cells; 10 µM): 4.1 ± 1.8%; viable cells [%] AV- / PI- (MCF-7 cells; 10 µM): 86.9 ± 5.9%; ∑apoptotic cells [%] (MCF-7 cells; 10 µM): 9.1%; early apoptotic cells [%] AV+ / PI- (MCF-7 cells; 20 µM): 1.5 ± 0.6%; late apoptotic cells [%] AV+ / PI+ (MCF-7 cells; 20 µM): 11.4 ± 0.7%; necrotic cells [%] AV- / PI+ (MCF-7 cells; 20 µM): 8.7 ± 0.3%; viable cells [%] AV- / PI- (MCF-7 cells; 20 µM): 78.5 ± 1.0%; ∑apoptotic cells [%] (MCF-7 cells; 20 µM): 12.9%; early apoptotic cells [%] AV+ / PI- (MCF-7 cells; 50 µM): 1.3 ± 0.5%; late apoptotic cells [%] AV+ / PI+ (MCF-7 cells; 50 µM): 16.2 ± 2.5%; necrotic cells [%] AV- / PI+ (MCF-7 cells; 50 µM): 25 ± 0.9%; viable cells [%] AV- / PI- (MCF-7 cells; 50 µM): 57.7 ± 2.2% |
| F[P-](F)(F)(F)(F)F.[O-]c1c(-c2ccc(Cl)cc2)oc2ccccc2c1=S.[W+4].c1cc[cH-]c1.c1cc[cH-]c1 [Compound 4, Bis(η^5-cyclopentadienyl)[2-(4-chlorophenyl)-3-(oxo-κO)-4(H)-chromen-4-thionato-κS]tungsten(IV) hexafluorophosphate] | – | – | – | – | 6.3 ± 0.5 µM | 5.6 | 31 ± 6 µM | – | early apoptotic cells [%] AV+ / PI- (MCF-7 cells; 2 µM): 1.0 ± 0.8%; late apoptotic cells [%] AV+ / PI+ (MCF-7 cells; 2 µM): 3.4 ± 1.2%; necrotic cells [%] AV- / PI+ (MCF-7 cells; 2 µM): 1.8 ± 0.0%; viable cells [%] AV- / PI- (MCF-7 cells; 2 µM): 93.9 ± 2.1%; ∑apoptotic cells [%] (MCF-7 cells; 2 µM): 4.4%; early apoptotic cells [%] AV+ / PI- (MCF-7 cells; 10 µM): 1.2 ± 0.5%; late apoptotic cells [%] AV+ / PI+ (MCF-7 cells; 10 µM): 12.0 ± 2.0%; necrotic cells [%] AV- / PI+ (MCF-7 cells; 10 µM): 11.7 ± 4.7%; viable cells [%] AV- / PI- (MCF-7 cells; 10 µM): 75.2 ± 2.2%; ∑apoptotic cells [%] (MCF-7 cells; 10 µM): 13.2%; early apoptotic cells [%] AV+ / PI- (MCF-7 cells; 20 µM): 1.0 ± 0.4%; late apoptotic cells [%] AV+ / PI+ (MCF-7 cells; 20 µM): 15.1 ± 3.3%; necrotic cells [%] AV- / PI+ (MCF-7 cells; 20 µM): 33.8 ± 14.5%; viable cells [%] AV- / PI- (MCF-7 cells; 20 µM): 50.2 ± 10.8%; early apoptotic cells [%] AV+ / PI- (MCF-7 cells; 50 µM): 0.0 ± 0.0%; late apoptotic cells [%] AV+ / PI+ (MCF-7 cells; 50 µM): 43.4 ± 3.7%; necrotic cells [%] AV- / PI+ (MCF-7 cells; 50 µM): 51.5 ± 10.3%; viable cells [%] AV- / PI- (MCF-7 cells; 50 µM): 5.0 ± 6.6%; ∑apoptotic cells [%] (MCF-7 cells; 50 µM): 43.4% |
| F[P-](F)(F)(F)(F)F.O=C([O-])c1ccccn1.[W+4].c1cc[cH-]c1.c1cc[cH-]c1 [Compound 5, Bis(η^5-cyclopentadienyl)[2-(carboxylato-κO)-pyridine-κN]tungsten(IV) hexafluorophosphate] | 1.3 ± 0.7% | 7.9 ± 5.3% | 4.2 ±2.2% | – | > 200 µM | – | > 200 µM | 9.2% | – |
| Cc1c([O-])c(=O)ccn1C.F[P-](F)(F)(F)(F)F.[W+4].c1cc[cH-]c1.c1cc[cH-]c1 [Compound 6, Bis(η^5-cyclopentadienyl)[1,2-dimethyl-3-(oxo-κO)-4-(1H)-pyridonato-κO]tungsten(IV) hexafluorophosphate] | 1.4 ± 0.8% | 3.6 ± 1.5% | 2.1 ± 0.5% | 92.8 ± 2.2% | 141 ± 36 µM | – | > 200 µM | 5.1% | – |
| Cc1cc(=O)c([O-])co1.F[P-](F)(F)(F)(F)F.[W+4].c1cc[cH-]c1.c1cc[cH-]c1 [Compound 7, Bis(η^5-cyclopentadienyl)[2-methyl-5-(oxo-κO)-4-(1H)-pyran-4-ato-κO] tungsten(IV) hexafluorophosphate] | 1.3 ± 0.4% | 8.1 ± 5.5% | 3.2 ± 1.2% | 87.4 ± 6.6% | > 200 µM | – | > 200 µM | 9.4% | – |
| Cc1cc(=S)c([O-])co1.F[P-](F)(F)(F)(F)F.[W+4].c1cc[cH-]c1.c1cc[cH-]c1 [Compound 8, Bis(η^5-cyclopentadienyl)[2-methyl-5-(oxo-κO)-pyran-4-(1H)-thionato-κS] tungsten(IV) hexafluorophosphate] | 1.2 ± 0.3% | 8.7 ± 6.9% | 2.7 ± 1.4% | 87.3 ± 8.3% | > 200 µM | – | > 200 µM | 9.9% | – |
| CCc1occc(=O)c1[O-].F[P-](F)(F)(F)(F)F.[W+4].c1cc[cH-]c1.c1cc[cH-]c1 [Compound 9, Bis(η^5-cyclopentadienyl)[2-ethyl-3-(oxo-κO)-4-(1H)-pyran-4-ato-κO] tungsten(IV) hexafluorophosphate] | 1.6 ± 1.0% | 8.4 ± 5.5% | 2.9 ± 1.8% | 87.2 ± 7.2% | > 200 µM | – | > 200 µM | – | – |
| CCc1occc(=S)c1[O-].F[P-](F)(F)(F)(F)F.[W+4].c1cc[cH-]c1.c1cc[cH-]c1 [Compound 10, Bis(η^5-cyclopentadienyl)[2-ethyl-3-(oxo-κO)-4-(1H)-pyran-4-thionato-κS] tungsten(IV) hexafluorophosphate] | 5.5 ± 3.2% | 46.3 ± 3.2% | 32.4 ± 12.3% | 15.7 ± 6.0% | 53 ± 8 µM | > 3.7 | > 200 µM | – | – |

From paper PMC10384408, “Anticancer Tungstenocenes with a Diverse Set of (O,O–), (O,S–) and (O,N–) Chelates—A Detailed Biological Study Using an Improved Evaluation via 3D Spheroid Models” (Pharmaceutics, 2023)
